Experimental data: patent publication US8207091B2, “Methods for improving growth and crop productivity of plants by adjusting plant hormone levels, ratios and/or co-factors” (Stoller Enterprises, Inc., priority 2004, dated 2012)

Experiments:
Type in all cases: in vivo
radish plants [1] = assay: Effects of PGR on radish growth (soil applied); settings: soil applied at planting and weekly, PGR solution 12 oz/acre, IAA or kinetin 0.84 micrograms per square foot; for Average Leaf Length: largest leaf, 21 days after planting, ± SD of the mean; for Average Hypocotyl Length: measured 21 days after planting, ± standard deviation of the mean
Method: In this experiment, the effects of PGRs on radish growth were observed. A total of eighty (80) plants were used for this experiment. Twenty (20) plants were treated with water as a control. Twenty (20) plants were treated with a PGR solution corresponding to a rate of 12 oz/acre. The PGR solution is an aqueous solution including 0.015% IAA, 0.005% IBA, 0.009% cytokinin and 0.005% gibberellic acid as active ingredients. […] A small measure, 0.0084 ml of this solution, was diluted into 100 ml of water and applied to the soil of a container having a surface area of about 1 square foot to correspond to an application rate of 12 oz/acre. Twenty (20) plants were treated with an auxin solution containing indole-3-acetic acid (IAA) at a rate of 0.84 micrograms in 100 ml water per square foot of surface area of the container. Finally, twenty (20) plants were treated with the cytokinin kinetin at a rate of 0.84 micrograms in 100 ml water per square foot of surface area of the container. Treatments were applied to soil at the time of planting and repeated every week thereafter. Length of the hypocotyl and largest leaf of each plant was measured 21 days after planting. The mean hypocotyl length and leaf length was calculated. Results are tabulated in Table I and illustrated in FIGS. 3 and 4.

radish plants [2] = assay: Radish shoot height, treated twice at four day intervals; settings: IAA and kinetin equivalent to relative amounts in 6 oz/acre PGR solution; two treatments; 15 plants
Method: In this portion of the experiment radish plants were treated twice at four day intervals. Plants were treated first on emergence, and again four (4) days later. Measurements were taken one week after the last treatment. Treatments are equivalent to 6 oz/acre, 12 oz/acre, and 24 oz/acre of PGR solution, while the IAA and kinetin treatments are equivalent to the relative amounts in the 6 oz/acre rate of PGR solution. […] The results of these experiments are tabulated in Table II and illustrated in FIG. 5.

Tomato variety TSH04 = assay: Effects of PGRs on tomato fruit weight (greenhouse); settings: one truss per plant; 112 days after planting; PGR 6 oz/acre, IAA/kinetin 0.42 or 0.11 micrograms; soil or foliar not told apart
Method: In this experiment, the effects of PGRs on tomato yield were determined. Tomato variety TSH04, which is a processing tomato, was used. All plants were grown in five gallon pots in a greenhouse. Eight plants were used for each treatment. Application of the treatments was done aerially to eight plants and in the soil for eight plants to allow comparison of soil versus foliar application of the PGRs. Treatments were 6 oz/acre PGR solution. The treating solutions were prepared by diluting 0.0042 ml of concentrated solution into 100 ml water for application to the soil, or into 50 ml water for foliar application. The IAA solution was prepared by diluting 0.42 micrograms of IAA into 100 ml water for application to the soil, or into 50 ml water for foliar application. The cytokinin solution was prepared by diluting 0.42 micrograms of kinetin into 100 ml water for application to the soil, or into 50 ml water for spraying of the foliage. The solution containing both IAA and kinetin at a 1:1 ratio was prepared by diluting 0.42 micrograms of IAA and 0.42 micrograms of kinetin into 100 ml water for application to the soil, or into 50 ml water for foliar application. A solution containing both IAA and kinetin at a 4:1 ratio was prepared by diluting 0.42 micrograms of IAA and 0.11 micrograms of kinetin into 100 ml water for soil application, or into 50 ml water for foliar application. Finally, a solution containing both IAA and kinetin at a 1:4 ratio was prepared by diluting 0.11 micrograms of IAA and 0.42 micrograms of kinetin into 100 ml water for soil application, or into 50 ml water for foliar application. Water was employed as a control. Plants were kept pruned to one fruiting truss per plant and the weight of the fruit from each plant was measured when most of the fruit had ripened (112 days after planting). FIGS. 6 and 7 illustrate the increased fruit weight achieved, respectively, for total and individual fruits with each treatment.

[3] = test system: National pickling cucumber; assay: Effects of PGRs on cucumber internode length, 21 days; settings: soil applied weekly, 21 days after planting; for Internode 1 length: first (bottom) internode, 6 oz/acre or 0.42 micrograms; for Internode 2 length: second (middle) internode; for Internode 3 length: third (top) internode
Method: In this experiment, the effect of PGRs on cucumber internode length was determined. The cucumber variety used was the National pickling cucumber distributed by NK Lawn & Garden Co. (Chattanooga, Tenn.). Eight plants were used per treatment. Treatments were applied to the soil of each five-gallon pot containing one plant per pot. Treatments were 6 oz/acre PGR solution. The final PGR solution was prepared by diluting 0.0042 ml of the concentrated solution into 100 ml water. The IAA solution was prepared by diluting 0.42 micrograms of IAA into 100 ml water. The cytokinin solution was prepared by diluting 0.42 micrograms of kinetin into 100 ml water. Finally, plants were treated with 6 oz/acre N-Large. The treating solution was prepared by diluting 0.0042 ml of the commercial solution into 100 ml water. N-Large is a formulation containing 4 percent gibberellin (GA3). Water was used as a control. Treatments were applied to the soil at the time of planting, and weekly thereafter. Twenty-one (21) days after planting, the internode length of the first (bottom), second (middle), and third (top) internodes were measured to the nearest millimeter. The average internode length for first, second, and third internodes was calculated for each treatment. Results are tabulated in Table IV and illustrated in FIG. 8.

[4] = test system: National pickling cucumber; assay: Effects of PGRs on cucumber vines and fruit, 84 days; settings: for Average Branch Number / Average Internode Number / Average Vine Length: 84 days after planting; for Average Internode Length: 84 days, vine length divided by internode number; for Average Cucumber Weight: harvested 84 days after planting

| SMILES | Average Leaf Length (radish plants [1]) [mm] | Average Hypocotyl Length (radish plants [1]) [mm] | Shoot Height Foliar Applied (radish plants [2]) [mm] | Average total fruit weight per plant (Tomato variety TSH04) [grams] | Average weight of each fruit (Tomato variety TSH04) [grams] | Internode 1 length [3] [millimeters] | Internode 2 length [3] [millimeters] | Internode 3 length [3] [millimeters] | Average Branch Number [4] | Average Internode Number [4] | Average Vine Length [4] [mm] | Average Internode Length [4] [mm] | Average Cucumber Weight [4] [gm] |
| --- | --- | --- | --- | --- | --- | --- | --- | --- | --- | --- | --- | --- | --- |
| O=C(O)Cc1c[nH]c2ccccc12 [Auxin, indole-3-acetic acid] | 121.15 ± 5.20 | 51.15 ± 2.64 | 91.46 ± 4.20 | 63.79 ± 7.59 | 11.45 ± 1.99 | 115.88 ± 4.01 | 25.38 ± 3.13 | 4.50 ± 1.91 | 7.25 ± 1.86 | 30.75 ± 1.96 | 267.00 ± 5.70 | 8.72 ± 0.87 | 311.98 ± 9.17 |
| c1coc(CNc2ncnc3[nH]cnc23)c1 [Cytokinin, kinetin] | 101.25 ± 4.46 | 46.10 ± 3.10 | 89.00 ± 4.55 | 89.08 ± 6.85 | 14.76 ± 2.47 | 106.38 ± 3.98 | 20.25 ± 3.40 | 2.13 ± 1.25 | 6.25 ± 2.27 | 30.50 ± 1.75 | 255.50 ± 5.61 | 8.37 ± 0.62 | 229.71 ± 1.33 |
